As a reminder, the IC50 is the midpoint of a concentration-inhibition curve. Low values mean inhibition by little substance, high ones a need for much substance. In general, inhibition refers to the change of the read-out against control, counted positive when it falls.

Assay [1] has as its system KRas-mediated phosphorylation of ERK in A549 cells. Briefly: Inhibition of KRas-mediated phosphorylation of ERK (Cisbio HTRF pERK), A549 cells. As to conditions: for inhibition at 0.1 µM / IC50: Homo sapiens; for inhibition at 0.1 µM: A549, 3 h; for IC50: HTRF pERK. It counts as cell-based. Here is the method: (§1) Inhibition of KRas Phosphorylation of ERK (HTRF) by Exemplary Compounds of Formula (I) Cisbio HTRF Advanced PERK Assay Catalog #64[…] […] Add 10 mL of media to stop trypsinizing. Pipette the cells into a conical bottom 50 mL centrifuge tube and centrifuge 5 min×1000 rpm. […] Re-suspend the cell pellet in media, take a cell count, and then adjust the cell density using fresh media. […] Seed 6,000 cells into cell culture plate with 50 μL media. […] Use Tecan to complete the compound addition. Compounds start from 10 uM top, 3-fold dilution, and 10 doses. The final DMSO concentration is 0.8%. Dispensed 0.2 uM Trametinib as Min control. […] Incubate cell plate for 3 hrs in the incubator. […] Dilute 1 volume of 4× lysis buffer with 3 volumes of deionized water. […] Keep lysis buffer on the ice. […] At the end of the compound treatment, flick-off the media. […] Add 35 μL of lysis buffer per well using a Multidrop Combi. Then place on a plate agitator shaking at 300 rpm at 4° C. for 40 mins. […] Make up the HTRF antibody buffer. For each assay plate, mix 50 μL of d2-conjugate antibody with 950 μL of detection buffer. Similarly, mix 50 μL of Cryptate antibody with 950 μL of detection buffer. Then mix the two diluted antibodies together. […] Dispense 3.4 μL the antibody buffer to wells of an empty assay plate. Seal the plate and centrifuge plate 30 sec×1000 rpm. […] At the end of the 4° C. lysis, centrifuge the lysate plates 3 mins×1500 rpm. […] Use the Bravo to transfer 13.6 μL of lysate from cell culture plate to assay plate. Then incubate assay plate for 2 hrs at room temperature. 8. At the end of incubation, read plate on the Envision after centrifuging plate 30 sec×1000 rpm.
(In general: TR-FRET usually uses a lanthanide donor and a delayed reading to cut background.)

The test system of assay [2] is KRas-mediated phosphorylation of ERK in H727 cells. Put plainly: Inhibition of KRas-mediated phosphorylation of ERK (Cisbio HTRF pERK), H727 cells. As to conditions: for IC50: HTRF pERK; for inhibition at 0.1 µM: NCI-H727, 3 h. It counts as cell-based. The method, boiled down: (§2)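 Following a 3-hr exposure of cells to serially diluted compound (from 10 uM, 3-fold, 10 doses), cold lysis for 40 mins preceded a 2-hr room-temperature HTRF immunoassay for phosphorylated ERK.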

In assay [3] the test system is KRas-mediated phosphorylation of ERK in AsPC-1 cells. Briefly: Inhibition of KRas-mediated phosphorylation of ERK (Cisbio HTRF pERK), AsPC-1 cells. It counts as cell-based. Conditions: for IC50: HTRF pERK; for inhibition at 0.1 µM: ASPC1, 3 h. The method, boiled down:
as §2

For assay [4], the system named is KRas-mediated phosphorylation of ERK in H358 cells. Briefly: Inhibition of KRas-mediated phosphorylation of ERK (Cisbio HTRF pERK), H358 cells. It counts as cell-based. As to conditions: for inhibition at 0.1 µM / IC50: Homo sapiens; for inhibition at 0.1 µM: NCI-H358, 3 h; for IC50: NCI-H358, HTRF pERK. As to the method:
as §1

The subject of assay [5] is KRas-mediated phosphorylation of ERK in H460 cells. Put plainly: Inhibition of KRas-mediated phosphorylation of ERK (Cisbio HTRF pERK), H460 cells. It counts as cell-based. Conditions: for inhibition at 0.1 µM / IC50: Homo sapiens; for inhibition at 0.1 µM: NCI-H460, 3 h; for IC50: NCI-H460, HTRF pERK. Here is the method:
as §1

For a further assay, the target named is T1, KRas^G12V (Homo sapiens, UniProt P01116, G12V).
T1 construct: Biotinylated KRas (corresponding to amino acids 1-169, produced at Accelegan Inc.); biotin (biotinylated); purchased Accelegan Inc
Put plainly: KRas binding assay (TR-FRET tracer displacement), KRas G12V.

Assay [6] relates to KRas-mediated phosphorylation of ERK in HCT116 cells. Put plainly: Inhibition of KRas-mediated phosphorylation of ERK (Cisbio HTRF pERK), HCT116 cells. It counts as cell-based. As to conditions: for inhibition at 0.1 µM / IC50: Homo sapiens; for inhibition at 0.1 µM: HCT-116, 3 h; for IC50: HCT-116, HTRF pERK. Here is the method: as §1
The target of another assay is T2, KRas^G12R (Homo sapiens, UniProt P01116, G12R).
T2 construct: Biotinylated KRas (corresponding to amino acids 1-169, produced at Accelegan Inc.); biotin (biotinylated); purchased Accelegan Inc
Briefly: KRas binding assay (TR-FRET tracer displacement), KRas G12R.

The target in another assay is T3, KRas^G12D (Homo sapiens, UniProt P01116, G12D).
T3 construct: Biotinylated KRas (corresponding to amino acids 1-169, produced at Accelegan Inc.); biotin (biotinylated); purchased Accelegan Inc
Put plainly: KRas binding assay (TR-FRET tracer displacement), KRas G12D.

The mark [7] stands for this setting: single point, 100 nM compound, 3 hrs, 0.1 µM.
The mark [8] stands for this setting: single point, 100 nM compound, 3 hrs.
Setting [9] is: Homo sapiens, NCI-H727, H727 cells.
The mark [10] stands for this setting: Homo sapiens, ASPC1, AsPC-1 cells.
[11] abbreviates: Homo sapiens, single point, 100 nM compound, 3 hrs, H727 cells.
The mark [12] stands for this setting: Homo sapiens, single point, 100 nM compound, 3 hrs, AsPC-1 cells.

T1 sequence (P01116 1-169 isoform P01116-2 G12V): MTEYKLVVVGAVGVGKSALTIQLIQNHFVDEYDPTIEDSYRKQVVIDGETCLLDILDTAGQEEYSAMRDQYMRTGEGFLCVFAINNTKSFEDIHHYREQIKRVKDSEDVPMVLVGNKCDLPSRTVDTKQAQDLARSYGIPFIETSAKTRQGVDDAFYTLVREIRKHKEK
T3 sequence (P01116 1-169 isoform P01116-2 G12D): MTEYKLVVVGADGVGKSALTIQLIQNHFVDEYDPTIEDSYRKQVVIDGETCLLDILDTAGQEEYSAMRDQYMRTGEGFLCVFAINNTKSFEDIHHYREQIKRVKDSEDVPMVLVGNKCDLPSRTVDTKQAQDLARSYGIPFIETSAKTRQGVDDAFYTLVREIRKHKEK
T2 sequence (P01116 1-169 isoform P01116-2 G12R): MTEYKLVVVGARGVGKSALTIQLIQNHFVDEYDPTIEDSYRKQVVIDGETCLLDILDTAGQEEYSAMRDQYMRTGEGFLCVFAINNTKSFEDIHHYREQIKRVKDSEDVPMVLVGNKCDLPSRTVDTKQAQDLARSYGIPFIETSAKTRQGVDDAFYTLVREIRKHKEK

Take `CCc1c(F)ccc2cc(O)cc(-c3ncc4c(N5CC6CCC(C5)C6C#N)nc(OC[C@@]56CCCN5C[C@H](F)C6)nc4c3F)c12` (single isomer, unassigned) [Example 560]: in [1] (setting [7]), the “Inhibition (HTRF % at 100 nM) of KRas-mediated Phosphorylation of ERK, A549” value is reported as 15%. Moreover, the IC50 in assay [2] (H727 cells) turned out to be 724 nM; in assay [3] (AsPC-1 cells) it was 3100 nM; on KRas^G12V, 85 nM; at KRas^G12R, 182 nM; at KRas^G12D it was 262 nM. In assay [2] (single point, 100 nM compound, 3 hrs, H727 cells, 0.1 µM), the “Inhibition (HTRF % at 100 nM) of KRas-mediated Phosphorylation of ERK, H727” value turned out to be 8%. For the same compound, the “Inhibition (HTRF % at 100 nM) of KRas-mediated Phosphorylation of ERK, AsPC-1” value in assay [3] (single point, 100 nM compound, 3 hrs, AsPC-1 cells, 0.1 µM) is on record as 5%. Besides, the “Inhibition (HTRF % at 100 nM) of KRas-mediated Phosphorylation of ERK, H358” value in assay [4] (setting [7]) is reported as 4%. The “Inhibition (HTRF % at 100 nM) of KRas-mediated Phosphorylation of ERK, H460” value in assay [5] (setting [7]) amounted to 10%. Besides, the “Inhibition (HTRF % at 100 nM) of KRas-mediated Phosphorylation of ERK, HCT116” value in [6] (setting [7]) was 12%.

With `CCc1c(F)ccc2cc(O)cc(-c3ncc4c(NCc5cc(C(=O)N(C)C)nn5C5CCS(=O)(=O)C5)nc(OC[C@@]56CCCN5C[C@H](F)C6)nc4c3F)c12` (single isomer, unassigned) [Example 694], the inhibition at 0.1 µM in assay [1] (setting [8]) was -8%; in assay [4] (setting [8]) it was 9%; in assay [5] (setting [8]), -3%; in assay [6] (setting [8]), -10%. Besides, the IC50 in assay [2] (setting [9]) is 605 nM; in [3] (setting [10]), 985 nM; at KRas^G12V it was 17 nM; on KRas^G12R, 38 nM; at KRas^G12D it was 106 nM.

As to `CCc1c(F)ccc2cc(O)cc(-c3ncc4c(N5CCC[C@@](C)(O)C5)nc(N5CC(C)(N)C5)nc4c3F)c12` [Example 530, (R)-1-(2-(3-amino-3-methylazetidin-1-yl)-7-(8-ethyl-7-fluoro-3-hydroxynaphthalen-1-yl)-8-fluoropyrido[4,3-d]pyrimidin-4-yl)-3-methylpiperidin-3-ol], the inhibition at 0.1 µM in assay [1] (setting [8]) is 15%; in assay [4] (setting [8]), 6%; in assay [5] (setting [8]) it was 18%; in assay [6] (setting [8]), -6%. The IC50 in assay [2] (setting [9]) was 4390 nM; in assay [3] (setting [10]), 2770 nM; on KRas^G12V, 66 nM; at KRas^G12R, 91 nM; on KRas^G12D, 59 nM.

`CCc1c(F)ccc2cc(O)cc(-c3ncc4c(N5CCC[C@@](C)(O)C5)nc(N5CC(N(C)C)C5)nc4c3F)c12` [Example 533, (R)-1-(2-(3-(dimethylamino)azetidin-1-yl)-7-(8-ethyl-7-fluoro-3-hydroxynaphthalen-1-yl)-8-fluoropyrido[4,3-d]pyrimidin-4-yl)-3-methylpiperidin-3-ol]: the inhibition at 0.1 µM in assay [1] (setting [8]) was 27%; in [4] (setting [8]) it was -7%; in assay [5] (setting [8]), 8%; in assay [6] (setting [8]), 8%. Besides, the IC50 in [2] (setting [9]) worked out at 1970 nM; in [3] (setting [10]), 1500 nM; at KRas^G12V, 105 nM; on KRas^G12R, 119 nM; at KRas^G12D, 72 nM.

As for `CCc1c(F)ccc2cc(O)cc(-c3ncc4c(N5CCCC6(C5)NC(=O)NC6=O)nc(N5CC(N(C)C)C5)nc4c3F)c12` (stereo not drawn) [Example 534, 7-(2-(3-(dimethylamino)azetidin-1-yl)-7-(8-ethyl-7-fluoro-3-hydroxynaphthalen-1-yl)-8-fluoropyrido[4,3-d]pyrimidin-4-yl)-1,3,7-triazaspiro[4.5]decane-2,4-dione], the inhibition at 0.1 µM in assay [1] (setting [8]) was -19%; in assay [4] (setting [8]), -9%; in assay [5] (setting [8]), -6%; in assay [6] (setting [8]), -6%. Further, the IC50 in [2] (setting [9]) is 1620 nM; in [3] (setting [10]) it was 5810 nM; on KRas^G12V, 5 nM; at KRas^G12R, 2 nM; at KRas^G12D it was 7 nM.

On to `CCc1c(F)ccc2cc(O)cc(-c3ncc4c(N5CCn6cc(C(=O)N(C)C)nc6C5)nc(OC[C@@]56CCCN5C[C@H](F)C6)nc4c3F)c12` [Example 646, 7-(7-(8-ethyl-7-fluoro-3-hydroxynaphthalen-1-yl)-8-fluoro-2-(((2R,7aS)-2-fluorohexahydro-1H-pyrrolizin-7a-yl)methoxy)pyrido[4,3-d]pyrimidin-4-yl)-N,N-dimethyl-5,6,7,8-tetrahydroimidazo[1,2-a]pyrazine-2-carboxamide], for which the inhibition at 0.1 µM was -24% in assay [1] (setting [8]); -6% in [2] (setting [11]); -12% in [3] (setting [12]); 2% in assay [4] (setting [8]); -9% in assay [5] (setting [8]); -9% in assay [6] (setting [8]). Further, the IC50 was > 10000 nM in [2] (setting [9]) and 8480 nM in [3] (setting [10]).

Regarding `CCNC(=O)c1cc2n(n1)CCCCN(c1nc(OC[C@@]34CCCN3C[C@H](F)C4)nc3c(F)c(-c4cc(O)cc5ccc(F)c(CC)c45)ncc13)C2` [Example 673, N-ethyl-5-(7-(8-ethyl-7-fluoro-3-hydroxynaphthalen-1-yl)-8-fluoro-2-(((2R,7aS)-2-fluorotetrahydro-1H-pyrrolizin-7a(5H)-yl)methoxy)pyrido[4,3-d]pyrimidin-4-yl)-4,5,6,7,8,9-hexahydropyrazolo[1,5-a][1,4]diazocine-2-carboxamide], the inhibition at 0.1 µM in [1] (setting [8]) came to 43%; in assay [2] (setting [11]), 53%; in [3] (setting [12]), 8%; in assay [4] (setting [8]), 88%; in assay [5] (setting [8]) it was 8%; in assay [6] (setting [8]), 16%. Also, the IC50 was determined as 21 nM in assay [2] (setting [9]) and 115 nM in assay [3] (setting [10]).

`CCc1c(F)ccc2cc3[nH]ncc3c(-c3ncc4c(N5CCCC6(CNS(=O)(=O)N6)C5)nc(OC[C@@]56CCCN5C[C@H](F)C6)nc4c3F)c12` (stereo partly drawn) [Example 872]: the half-inhibitory concentration (IC50) in [1] was 581 nM; in [2] (setting [9]), 1210 nM; in assay [3] (setting [10]) it was 328 nM; in assay [4] it was 197 nM; in assay [5], 318 nM; in [6], 636 nM.

Regarding `CCc1c(F)ccc2cc(O)cc(-c3ncc4c(N5CC6CNCC6C5CO)nc(OC[C@@]56CCCN5C[C@H](F)C6)nc4c3F)c12` (stereo partly drawn) [Example 890, 5-ethyl-6-fluoro-4-(8-fluoro-2-(((2R,7aS)-2-fluorotetrahydro-1H-pyrrolizin-7a(5H)-yl)methoxy)-4-(1-(hydroxymethyl)hexahydropyrrolo[3,4-c]pyrrol-2 (1H)-yl)pyrido[4,3-d]pyrimidin-7-yl)naphthalen-2-ol], the IC50 in assay [1], in assay [2] (setting [9]), in [3] (setting [10]), in assay [4], in assay [5] and in assay [6] was > 10000 nM throughout.

On to `CCc1c(F)ccc2cc(O)cc(-c3ncc4c(N5CC6CCC(CCC(=O)N(C)C)(C6)C5)nc(OC[C@@]56CCCN5C[C@H](F)C6)nc4c3F)c12` (stereo partly drawn) [Example 913, 3-(3-(7-(8-ethyl-7-fluoro-3-hydroxynaphthalen-1-yl)-8-fluoro-2-(((2R,7aS)-2-fluorotetrahydro-1H-pyrrolizin-7a(5H)-yl)methoxy)pyrido[4,3-d]pyrimidin-4-yl)-3-azabicyclo[3.2.1]octan-1-yl)-N,N-dimethylpropanamide], for which the IC50 stood at 246 nM in [1]; 571 nM in [2] (setting [9]); 580 nM in assay [3] (setting [10]); 146 nM in assay [4]; 112 nM in assay [5]; 211 nM in assay [6].

The record behind these values is US20260015350A1, “AZAQUINAZOLINE PAN-KRAS INHIBITORS” (Mirati Therapeutics, Inc., priority 2022, published 2026).
